{"source": "patent US9987294B2", "about": "“Mitochondria-targeted anti-tumor agents” (University of Massachusetts, priority 2007, dated 2018)", "key": {"[1]": {"system": "lung adenocarcinoma H460 cells", "experiment": "Cell viability by MTT, H460", "assay_type": "cell-based, human", "method": "(§1) Modulation of cell viability was determined by MTT (Kang et al., “Regulation of tumor cell mitochondrial homeostasis by an organelle-specific Hsp90 chaperone network,” Cell, 131:257-270 (2007)). For determination of apoptosis, cells were analyzed for caspase activity (DEVDase activity) and plasma membrane integrity (propidium iodide) using CaspaTag (Intergen, Burlington, Mass.), by multiparametric flow cytometry (Kang et al., “Regulation of tumor cell mitochondrial homeostasis by an organelle-specific Hsp90 chaperone network,” Cell, 131:257-270 (2007))."}, "[2]": {"system": "tumor mitochondria", "experiment": "Cytochrome c release from drug-treated isolated tumor mitochondria", "assay_type": "biochemical", "method": "Tumor cell types were treated with controls or the various Hsp90 antagonists, and cytosolic extracts were harvested at increasing time intervals between 5-30 minutes and analyzed by Western blotting. For experiments in a cell-free system, purified mitochondria (20 μg) were suspended in 500 μl of SB buffer (0.2 M sucrose, 10 mM Tris-MOPS, pH 7.4, 5 mM succinate, 1 mM sodium phosphate, 10 μM EGTA-Tris, and 2 μM rotenone). […] At the end of each incubation reaction, mitochondria and supernatants were separated by centrifugation at 6,000×g for 10 minutes, and analyzed by Western blotting.\n(§2) The fluorescence intensity after treatment with 2 mM CaCl2 corresponded to a fully depolarized state. Alternatively, H460 cells were labeled with the fluorescent dye JC-1 (Molecular Probes), and analyzed for changes in red/green (F1-2/F1-1) fluorescence ratio after treatment with the various agents, by multiparametric flow cytometry. Cytochrome c content in pellets or supernatants of drug-treated isolated mitochondria was determined by Western blotting."}, "[3]": {"system": "H460 lung adenocarcinoma xenograft tumors", "experiment": "Xenograft tumor growth, H460", "assay_type": "in vivo, mice", "conditions": "i.p.; G4 and 17-AAG 2-3 mg/kg twice daily, G1 30-50 mg/Kg daily, TPP 10 mg/Kg daily", "method": "To create the models used in this example, HL60 (10×10^6) or H460 (4×10^6) cells suspended in sterile PBS (200 μl) were injected subcutaneously into both flanks of 10 week-old CB17 SCID/beige (Taconic Farms) immunocompromised female mice. Alternatively, MDA-MB-231 cells (5×10^6) suspended in 200 μl of 50% Matrigel (BD Biosciences) were used for subcutaneous injection in CB17 SCID/beige mice. When superficial tumors reached volumes of 100-150 mm^3, animals were randomized in two groups (2 tumors/mouse, 3 animals/group), and treated with vehicle (DMSO) or Gamitrinib dissolved in 20% Cremophor EL (Sigma) in PBS by intraperitoneal (i.p.) injection. Gamitrinib-G4 was used as sterile i.p. injections with the following schedules: HL60 xenografts, 2 mg/Kg twice daily; H460 xenografts, 2 mg/kg twice daily for d 0, 2.5 mg/kg twice daily for d 1, 3.0 mg/kg twice daily for the duration of treatment; MDA-MB-231 xenografts, 2 mg/Kg twice daily for d 0-2, 2.5 mg/Kg twice daily for d 3-5, and 3 mg/Kg twice daily throughout the rest of the treatment. 17-AAG was dissolved in 20% Cremophor EL and used as systemic i.p. injections with the same dose-escalating regimen as Gamitrinib-G4 in H460 xenograft studies. Gamitrinib-G1 was used with following schedules: 30 mg/Kg daily (d 0-2), and 50 mg/Kg daily for the rest of treatment. Gamitrinib-TPP was used as i.p. injections at 10 mg/Kg daily throughout the duration of the experiment. Tumor measurements were taken daily with a caliper, and tumor volume was calculated with the formula ([length in millimeters]×[width in millimeters]^2)/2. Mice in the various treatment groups were weighed at the beginning and at the end of each experiment."}, "[4]": {"system": "tumor cells", "experiment": "Cell viability by MTT, tumor cell types", "assay_type": "cell-based"}, "[5]": {"system": "breast adenocarcinoma SKBr3 cells", "experiment": "Metabolic activity by MTT, SKBr3", "assay_type": "cell-based", "conditions": "10 μM; by 48 hours and throughout a 96-hours interval", "method": "as §1"}, "[6]": {"system": "isolated tumor mitochondria", "experiment": "Inner membrane potential of TMRM-loaded tumor mitochondria", "assay_type": "biochemical", "method": "as §2"}, "[7]": {"system": "Akt, Chk1 and Hsp70 in HeLa cells", "experiment": "Hsp90 client protein and Hsp70 levels in treated cells (Western blotting)", "assay_type": "cell-based, human", "conditions": "5 μM for 24 hours", "method": "In other experiments, chaperone-dependent GST-Chk1 reconstitution was determined as described previously (Arlander et al., “Chaperoning checkpoint kinase 1 (Chk1), an Hsp90 client, with purified chaperones,” J Biol Chem, 281:2989-2998 (2006)). Briefly, each sample contained 0.7 μg of resin-bound GST-Chk1 (residues 1-265), 1 μg of purified human Hsp90α, and the following amounts of other purified chaperone proteins: 10 μg Hsp70, 2 μg Hdj1, 2 μg p50^cdc37, 0.06 units CK2, 2.5 μg p60^Hop. Optical densities due to Chk1-dependent phosphorylation of Cdc25 in the presence and absence of Gamitrinib or 17-AAG were determined and plotted as fold activation above the sample lacking added chaperone proteins. In some experiments, HeLa cells were treated with Gamitrinibs (G1-G4) or 17-AAG (5 μM) for 24 hours, and isolated extracts were analyzed for modulation of Akt or Hsp70 expression, by Western blotting"}, "[8]": {"system": "HeLa cells", "experiment": "Cytochrome c release into the cytosol of treated tumor cells (Western blotting)", "assay_type": "cell-based, human"}, "[9]": {"system": "Raji cells", "experiment": "Mitochondrial membrane potential in JC-1-loaded cells (flow cytometry)", "assay_type": "cell-based, human", "conditions": "within five minutes of addition", "method": "Raji cells were treated with Shepherdin or control scrambled peptidomimetic (100 μM) or 17-AAG (5 μM), loaded with the mitochondrial membrane potential-sensitive fluorescent dye JC-1, and analyzed for changes in green/red fluorescence ratio by flow cytometry. For experiments in a cell-free system, purified mitochondria isolated from primary normal cells, various tumor cells types, or normal mouse organs were suspended in SB buffer. […] For these experiments, TMRM-loaded mitochondria in SB buffer were allowed to reach stable fluorescence, which was set as fully polarized state (maximum membrane potential). The fluorescence intensity after treatment with 2 mM CaCl2 was set as minimum membrane potential (fully depolarized state). Changes in fluorescence intensity after each treatment were plotted as a ratio between maximum and minimum membrane potential."}, "[10]": {"system": "SKBr3 cells", "experiment": "Dead cells by Trypan blue staining, SKBr3", "assay_type": "cell-based", "conditions": "10 μM"}, "[11]": {"system": "HeLa cell mitochondria", "experiment": "Cytochrome c and Smac release from isolated tumor mitochondria (Western blotting)", "assay_type": "biochemical, human", "method": "Tumor cell types were treated with controls or the various Hsp90 antagonists, and cytosolic extracts were harvested at increasing time intervals between 5-30 minutes and analyzed by Western blotting. For experiments in a cell-free system, purified mitochondria (20 μg) were suspended in 500 μl of SB buffer (0.2 M sucrose, 10 mM Tris-MOPS, pH 7.4, 5 mM succinate, 1 mM sodium phosphate, 10 μM EGTA-Tris, and 2 μM rotenone). Samples were treated with controls or the various Hsp90 antagonists for 20 minutes at 22° C. At the end of each incubation reaction, mitochondria and supernatants were separated by centrifugation at 6,000×g for 10 minutes, and analyzed by Western blotting."}}, "note": "“Also recorded” adds a separate entry of the source.", "data": [{"smiles": "C=CCNC1=C2C[C@@H](C)C[C@H](OC)[C@H](O)[C@@H](C)/C=C(\\C)[C@H](OC(N)=O)[C@@H](OC)/C=C\\C=C(/C)C(=O)NC(=CC1=O)C2=O", "note": "[Gamitrinib 17-AAG, 17-allylamino-demethoxygeldamycin]", "values": [{"measurement": "cell viability", "setting": "[1]; 3 hour exposure", "result": "had no effect"}, {"measurement": "cell viability", "setting": "[1]; 24 hours", "result": "partial reduction in cell viability or cell proliferation"}, {"measurement": "discharge of mitochondrial cytochrome c", "setting": "[2]; 20 minutes", "result": "ineffective"}, {"measurement": "cytochrome c release from mitochondria", "setting": "[2]; 3 hours (FIG. 16D)", "result": "had no effect on cytochrome c release"}, {"measurement": "tumor growth", "setting": "[3]", "result": "had no effect on human lung cancer growth in mice"}, {"measurement": "tumor cell viability / killing", "setting": "[4]; 1 hour exposure, MTT", "result": "had no effect on tumor cell viability within the same kinetics"}, {"measurement": "tumor cell killing", "setting": "[4]; prolonged exposure, 24 hours after treatment", "result": "partial cell killing; also recorded: modest anticancer activity"}, {"measurement": "metabolic activity", "setting": "[5]", "result": "comparably reduced metabolic activity"}, {"measurement": "mitochondrial inner membrane potential", "setting": "[6]", "result": "did not affect mitochondrial membrane potential"}, {"measurement": "expression of the chaperone Hsp70", "setting": "[7]", "result": "increased expression of the chaperone Hsp70"}, {"measurement": "levels of client proteins Chk1 and Akt", "setting": "[7]", "result": "destabilization of client proteins, Chk1 and Akt"}, {"measurement": "cytochrome c release into the cytosol", "setting": "[8]", "result": "had no effect on cytochrome c release over a wide range of concentrations"}, {"measurement": "mitochondrial membrane potential in tumor cells", "setting": "[9]", "result": "did not affect mitochondrial membrane potential in HeLa cells"}, {"measurement": "tumor cell killing (dead cells)", "setting": "[10]", "result": "most SKBr3 cells treated with 17-AAG were still alive after 72 hours"}, {"measurement": "cytochrome c or Smac release from isolated tumor mitochondria", "setting": "[11]; HeLa cell mitochondria", "result": "did not induce cytochrome c or Smac release; also recorded: had no effect on mitochondrial integrity"}, {"measurement": "discharge of mitochondrial cytochrome c and Smac in the supernatant", "setting": "[11]; high concentrations (20 μM)", "result": "a small discharge of mitochondrial cytochrome c, but not Smac"}]}]}
